EPA's ToxRefDB 2

Assays:
rabbit [1] = settings: Prenatal developmental toxicity study, new zealand white, Oral, Gavage/Intubation, dose end: 19 GD, group: maternal
rat [2] = settings: Sub-acute repeat dose toxicity, sprague dawley, Oral, Gavage/Intubation, dose end: 28 day, group: systemic
rat [3] = settings: Chronic toxicity, sprague dawley, Oral, Gavage/Intubation, dose end: 6 month, group: systemic
rabbit [4] = settings: Prenatal developmental toxicity study; new zealand white; Oral; Gavage/Intubation; dose end: 19 GD; group: maternal; reproductive / offspring survival early / litter viability other / total litter loss + systemic / in life observation / body weight / body …
dog [5] = settings: Sub-acute repeat dose toxicity, beagle, Oral, Gavage/Intubation, dose end: 4 week, group: systemic
rat [6] = settings: Fertility (Segment I), sprague dawley, Oral, Gavage/Intubation, dose end: 7 GD
rat [7] = settings: Prenatal developmental toxicity study, sprague dawley, Oral, Gavage/Intubation, dose end: 17 GD
dog [8] = settings: Chronic toxicity; beagle; Oral; Capsule; dose end: 26 week; group: systemic; systemic / in life observation / body weight / body weight gain + systemic / in life observation / clinical signs / [other] + systemic / in …
rat [9] = settings: Prenatal developmental toxicity study, sprague dawley, Oral, Gavage/Intubation, dose end: 17 GD; remark: listed apart in the source
rabbit [10] = settings: Prenatal developmental toxicity study, new zealand white, Oral, Gavage/Intubation, dose end: 19 GD, group: maternal; remark: listed apart in the source
rat [11] = settings: Sub-acute repeat dose toxicity, sprague dawley, Oral, Gavage/Intubation, dose end: 28 day, group: systemic; remark: listed apart in the source
rabbit [12] = settings: Prenatal developmental toxicity study, new zealand white, Oral, Gavage/Intubation, dose end: 19 GD, group: maternal; remark: listed apart in the source
rat [13] = settings: Prenatal developmental toxicity study, sprague dawley, Oral, Gavage/Intubation, dose end: 17 GD; remark: listed apart in the source
dog [14] = settings: Sub-acute repeat dose toxicity, beagle, Oral, Capsule, dose end: 4 week, group: systemic
rat [15] = settings: Fertility (Segment I); sprague dawley; Oral; Gavage/Intubation; dose end: 7 GD; group: parental; systemic / in life observation / body weight / body weight + systemic / in life observation / clinical signs / abnormal gait + systemic / in…
mouse = settings: Carcinogenicity; b6c3f1; Oral; Water; dose end: 90 week; group: systemic; systemic / pathology microscopic / liver / adenoma/carcinoma combined + systemic / pathology microscopic / liver / carcinoma + systemic / …
rat [16] = settings: Carcinogenicity, other, Oral, Water, dose end: 110 week, group: systemic
[17] = systemic / in life observation / body weight / body weight gain + systemic / in life observation / food consumption / food consumption
[18] = systemic / in life observation / body weight / body weight gain + systemic / in life observation / food consumption / food consumption + …
[19] = systemic / hematology / reticulocyte / reticulocyte + systemic / in life observation / clinical signs / hunched posture + systemic / in life…
[20] = systemic / in life observation / clinical signs / hunched posture + systemic / in life observation / clinical signs / piloerection
[21] = systemic / clinical chemistry / cholesterol / cholesterol + systemic / clinical chemistry / phosphorus / phosphate + systemic / clinical …
[22] = systemic / in life observation / clinical signs / hunched posture + systemic / pathology microscopic / liver / hypertrophy + systemic / in …
[23] = systemic / in life observation / clinical signs / dialated pupils + systemic / in life observation / clinical signs / defecation (diarrhea)
[24] = systemic / in life observation / clinical signs / dialated pupils + systemic / in life observation / clinical signs / defecation (diarrhea…
[25] = group: maternal, reproductive / reproductive performance / estrous cycle / abnormal
[26] = group: parental, systemic / in life observation / body weight / body weight gain + systemic / in life observation / clinical signs / hunched posture + …
[27] = group: developmental, systemic / in life observation / body weight / fetal weight
[28] = group: maternal, systemic / in life observation / body weight / body weight gain + systemic / in life observation / clinical signs / coma + systemic / in …
[29] = group: developmental, developmental / developmental malformation / mouth / jaw / cleft palate
[30] = group: maternal, systemic / in life observation / body weight / body weight gain + systemic / in life observation / clinical signs / abnormal gait + systemic…
[31] = systemic / in life observation / clinical signs / unsteady gait + systemic / in life observation / body weight / body weight gain
[32] = systemic / in life observation / clinical signs / unsteady gait + systemic / in life observation / body weight / body weight gain + systemic…
[33] = systemic / in life observation / body weight / body weight gain + systemic / in life observation / clinical signs / defecation + systemic / …
[34] = systemic / in life observation / clinical signs / abnormal feces + systemic / in life observation / clinical signs / body cold to touch + …
[35] = group: developmental, developmental / developmental malformation / mouth / jaw / cleft palate + systemic / in life observation / body weight / fetal weight
[36] = group: maternal, systemic / in life observation / clinical signs / impaired righting reflex + systemic / in life observation / clinical signs / piloerection
[37] = systemic / clinical chemistry / albumin / albumin + systemic / clinical chemistry / cholesterol / cholesterol + systemic / clinical …
[38] = systemic / clinical chemistry / cholesterol / cholesterol + systemic / clinical chemistry / lipids / phospholipids
[39] = systemic / pathology microscopic / kidney / degeneration + systemic / pathology microscopic / stomach / ulcer
[40] = systemic / pathology microscopic / kidney / degeneration + systemic / pathology microscopic / stomach / ulcer + systemic / pathology …

Q: What does the source list for `O=C(N[C@@H](c1ccccc1)[C@@H]1CCCCN1)c1cccc(C(F)(F)F)c1Cl`?
A: LEL (rabbit [1]; [17]): 15 mg/kg/day; LOAEL (rabbit [1]; [18]): > 30 mg/kg/day; NEL (rabbit [1]; [18]): 5 mg/kg/day; NOAEL (rabbit [1]; [18]): ≥ 30 mg/kg/day; LOAEL (rat [2]; [19]): 25 mg/kg/day; NOAEL (rat [2]; [19]): 5 mg/kg/day; LEL (rat [2]; [20]): 5 mg/kg/day; NEL (rat [2]; [20]): < 5 mg/kg/day; LOAEL (rat [3]; [21]): > 50 mg/kg/day; NOAEL (rat [3]; [21]): ≥ 50 mg/kg/day; LEL (rat [3]; [22]): 5 mg/kg/day; NEL (rat [3]; [22]): < 5 mg/kg/day; LEL (rabbit [4]): 30 mg/kg/day; LOAEL (rabbit [4]): 30 mg/kg/day; NEL (rabbit [4]): 10 mg/kg/day; NOAEL (rabbit [4]): 10 mg/kg/day; LEL (dog [5]; [23]): 1 mg/kg/day; NEL (dog [5]; [23]): < 1 mg/kg/day; LOAEL (dog [5]; [24]): > 10 mg/kg/day; NOAEL (dog [5]; [24]): ≥ 10 mg/kg/day; LEL (rat [6]; [25]): 50 mg/kg/day; LOAEL (rat [6]; [25]): > 50 mg/kg/day; NEL (rat [6]; [25]): 25 mg/kg/day; NOAEL (rat [6]; [25]): ≥ 50 mg/kg/day; LEL (rat [6]; [26]): 25 mg/kg/day; LOAEL (rat [6]; [26]): 25 mg/kg/day; NEL (rat [6]; [26]): 5 mg/kg/day; NOAEL (rat [6]; [26]): 5 mg/kg/day; LEL (rat [7]; [27]): 25 mg/kg/day; LOAEL (rat [7]; [27]): 25 mg/kg/day; NEL (rat [7]; [27]): 5 mg/kg/day; NOAEL (rat [7]; [27]): 5 mg/kg/day; LOAEL (rat [7]; group: maternal, systemic / in life observation / body weight / body weight gain): 25 mg/kg/day; NEL (rat [7]; [28]): 5 mg/kg/day; NOAEL (rat [7]; [28]): 5 mg/kg/day; LEL (rat [7]; group: maternal, systemic / in life observation / body weight / body weight gain + systemic / in life observation / food consumption / food consumption): 25 mg/kg/day

Q: What does the source list for `COc1cccc(-c2ccc(/C=C\CN3CCCCCC3)cc2Cl)c1.Cl`?
A: LEL (dog [8]): 15 mg/kg/day; LOAEL (dog [8]): 15 mg/kg/day; NEL (dog [8]): 7.5 mg/kg/day; NOAEL (dog [8]): 7.5 mg/kg/day; LEL (rat [9]; [29]): 75 mg/kg/day; LOAEL (rat [9]; [29]): 75 mg/kg/day; NEL (rat [9]; [29]): 35 mg/kg/day; NOAEL (rat [9]; [29]): 35 mg/kg/day; LEL (rat [9]; [30]): 35 mg/kg/day; LOAEL (rat [9]; [30]): 35 mg/kg/day; NEL (rat [9]; [30]): 15 mg/kg/day; NOAEL (rat [9]; [30]): 15 mg/kg/day; LEL (rabbit [10]; [17]): 35 mg/kg/day; LOAEL (rabbit [10]; [17]): 35 mg/kg/day; NEL (rabbit [10]; [18]): 15 mg/kg/day; NOAEL (rabbit [10]; [18]): 15 mg/kg/day; LOAEL (rat [11]; [31]): 30 mg/kg/day; NOAEL (rat [11]; [31]): < 30 mg/kg/day; LEL (rat [11]; [32]): 30 mg/kg/day; NEL (rat [11]; [32]): < 30 mg/kg/day; LEL (rabbit [12]; [33]): 25 mg/kg/day; NEL (rabbit [12]; [33]): < 25 mg/kg/day; LOAEL (rabbit [12]; [34]): > 150 mg/kg/day; NOAEL (rabbit [12]; [34]): ≥ 150 mg/kg/day; LEL (rat [13]; [29]): 60 mg/kg/day; LOAEL (rat [13]; [29]): 60 mg/kg/day; NEL (rat [13]; [35]): 30 mg/kg/day; NOAEL (rat [13]; [35]): 30 mg/kg/day; LEL (rat [13]; [36]): 30 mg/kg/day; LOAEL (rat [13]; [36]): 30 mg/kg/day; NEL (rat [13]; [36]): < 30 mg/kg/day; NOAEL (rat [13]; [36]): < 30 mg/kg/day; LOAEL (dog [14]; [37]): 10 mg/kg/day; NOAEL (dog [14]; [37]): 5 mg/kg/day; LEL (dog [14]; [38]): 5 mg/kg/day; NEL (dog [14]; [38]): < 5 mg/kg/day; LEL (rat [15]): 90 mg/kg/day; LOAEL (rat [15]): 90 mg/kg/day; NEL (rat [15]): 30 mg/kg/day; NOAEL (rat [15]): 30 mg/kg/day

Q: Which LEL (mouse) does the source give for `C1COCCO1` [1,4-Dioxane] here?
A: 380 mg/kg/day

Q: What about the LOAEL (mouse) of the same compound?
A: > 830 mg/kg/day

Q: And the NEL (mouse)?
A: < 380 mg/kg/day

Q: And the NOAEL (mouse)?
A: ≥ 830 mg/kg/day

Q: And the LOAEL (rat [16]; [39])?
A: 240 mg/kg/day

Q: What about the NOAEL (rat [16]; [39]) of the same compound?
A: < 240 mg/kg/day

Q: What about the LEL (rat [16]; [40]) of the same compound?
A: 240 mg/kg/day

Q: What about the NEL (rat [16]; [40]) of the same compound?
A: < 240 mg/kg/day
